Experiments:
[1] = tested on: Staphylococcus aureus 6538; test: High resolution minimum inhibitory concentration (HRMIC) test vs S. aureus 6538; assay type: cell-based; conditions: M9GY medium, 96-well microtiter plate, 10^6 CFU/mL, 30° C. for 24 h; first well with no growth
Description: (§1) Several compounds of this invention were tested for biological activity in vitro against Escherichia coli 8739 and Staphylococcus aureus 6538 described below. The following test procedures were employed.
(§2) MIC Determination: The lowest concentration of test compound required to inhibit Escherichia coli 8739 and Staphylococcus aureus 6538 was determined by a high resolution minimum inhibitory concentration (HRMIC) test. Varying amounts of the test compounds were added to minimal salts glucose medium (Maniatis, T., Fritsch, E. F., Sambrook, J. 1982 Molecular Cloning, page 68) supplemented with 0.1% yeast extract (M9GY) in a 96-well microtiter plate. […] serial dilutions were performed on a Biomek 2000 Workstation to obtain a range of closely spaced concentrations of test compound as shown in FIG. 1. A cell suspension of inoculum, adjusted to provide 10^6 CFU/mL in each well, was added to the microtiter plate. Microtiter plates were incubated at 30° C. for 24 h and then were checked for the presence or absence of microbial growth in each well.

Escherichia coli 8739 = test: High resolution minimum inhibitory concentration (HRMIC) test vs E. coli 8739; assay type: cell-based; conditions: M9GY medium, 96-well microtiter plate, 10^6 CFU/mL, 30° C. for 24 h; first well with no growth
Description: as §1, §2

| SMILES | MIC vs S. aureus 6538 Gram-positive [1] [ppm AI] | MIC vs E. coli 8739 Gram-negative (Escherichia coli 8739) [ppm AI] | melting point [°C] |
| --- | --- | --- | --- |
| CCn1cc(C(=O)O)c(=O)c2cc(F)c(N3CCN(C(=O)OC(OC(=O)c4ccccc4)C(=O)OC(C)C)CC3)cc21 (centres unmarked) [Compound 8-2, 7-(4-[(Isopropoxycarbonyl)(benzoyloxy)methoxycarbonyl]-1-piperazinyl)-1-ethyl-6-fluoro-1,4-dihydro-4-oxo-3-quinolinecarboxylic acid] | 0.45 | 3 | 135 to 143 |
| CCn1cc(C(=O)O)c(=O)c2cc(F)c(N3CCN(C(=O)OC(OC(=O)C(C)c4ccc(CC(C)C)cc4)C(=O)OC(C)C)CC3)cc21 (centres unmarked) [Compound 8-4, 7-(4-[(2-[4-(2-Methylpropyl)phenyl]propanoyloxy)(isopropoxycarbonyl)methoxy-carbonyl]-1-piperazinyl)-1-ethyl-6-fluoro-1,4-dihydro-4-oxo-3-quinolinecarboxylic acid] | 0.7 | >1000 | 88 to 96.5 |
| CCCCOC(=O)C(OC(=O)C(C)C)OC(=O)N1CCN(c2cc3c(cc2F)c(=O)c(C(=O)O)cn3CC)CC1 (centres unmarked) [Compound 8-1, 7-(4-[(Butoxycarbonyl)(2-methylpropanoyloxy)methoxycarbonyl]-1-piperazinyl)-1-ethyl-6-fluoro-1,4-dihydro-4-oxo-3-quinolinecarboxylic acid] | 0.06 | 2.5 | 151.5 to 160 |
| CCn1cc(C(=O)O)c(=O)c2cc(F)c(N3CCNCC3)cc21 [Norfloxacin, reference compound] | 0.9 | 0.2 | – |
| CCCCCCCCCCCC(=O)OC(OC(=O)N1CCN(c2cc3c(cc2F)c(=O)c(C(=O)O)cn3CC)CC1)C(=O)OC(C)C (centres unmarked) [Compound 8-3, 7-(4-[(Isopropoxycarbonyl)(dodecanoyloxy)methoxycarbonyl]-1-piperazinyl)-1-ethyl-6-fluoro-1,4-dihydro-4-oxo-3-quinolinecarboxylic acid] | 4.5 | 40 | 105.5 to 109.2 |

— patent US20040254182A1, “Enhanced propertied pharmaceuticals” (priority 2000, published 2004)
